What was measured:
[1] = xn = mol fraction of the nth substance listed; details: 87 kPa, Liquid, Vibrating tube method
[2] = 87 kPa, Liquid, Vibrating tube method

CC(=O)OC(C)(C)C [1,1-dimethylethyl ethanoate] + OC(CCl)CCl
[1], x2 = 0
Details	mass density [kg/m3]
293.15 K	866.95
298.15 K	861.41
303.15 K	855.79
308.15 K	850.17
313.15 K	844.49

CC(=O)OC(C)(C)C [1,1-dimethylethyl ethanoate] + OCc1ccccc1
mass density [kg/m3], [1]
Details	293.15 K	298.15 K	303.15 K	308.15 K	313.15 K
x2 = 0	866.95	861.41	855.79	850.17	844.49
x2 = 0.047	874.64	869.18	863.68	858.15	852.61
x2 = 0.0925	882.2	876.83	871.43	865.99	860.52
x2 = 0.2017	900.32	895.16	889.77	884.75	879.5
x2 = 0.3001	916.98	912	906.99	901.96	896.9
x2 = 0.4	934.1	929.3	924.47	919.62	914.74
x2 = 0.4999	951.7	947.08	942.4	937.73	933.04
x2 = 0.6002	969.63	965.17	960.68	956.18	951.66
x2 = 0.7027	988.3	984.07	979.75	975.42	971.06
x2 = 0.7996	1006.55	1002.4	998.24	994.06	989.87
x2 = 0.9059	1026.81	1022.83	1018.83	1014.82	1010.79
x2 = 0.9528	1035.96	1032.06	1028.11	1024.17	1020.21

OC(CCl)CCl [1,3-dichloro-2-propanol]
[2]
Details	mass density [kg/m3]
293.15 K	1362.66
298.15 K	1356.74
303.15 K	1350.72
308.15 K	1344.71
313.15 K	1338.65

OC(CCl)CCl [1,3-dichloro-2-propanol] + C=COC(C)=O
mass density [kg/m3], [1]
Details	293.15 K	298.15 K	303.15 K	308.15 K	313.15 K
x1 = 0.0481	954.28	947.93	941.53	935.07	928.57
x1 = 0.1022	978.78	972.47	966.08	959.68	953.24
x1 = 0.2021	1023.42	1017.18	1010.91	1004.52	998.25
x1 = 0.2995	1066.61	1060.46	1054.25	1048	1041.72
x1 = 0.3953	1108.66	1102.54	1096.39	1090.21	1083.96
x1 = 0.5002	1154.23	1148.18	1142.09	1135.96	1129.81
x1 = 0.6003	1197.18	1191.17	1185.12	1179.04	1172.93
x1 = 0.6999	1239.3	1233.34	1227.29	1221.25	1215.17
x1 = 0.8007	1281.45	1275.5	1269.5	1263.47	1257.41
x1 = 0.9014	1322.94	1317	1311	1304.98	1298.92
x1 = 0.9524	1343.43	1337.48	1331.49	1325.46	1319.4
x1 = 1	1362.66	1356.74	1350.72	1344.71	1338.65

OC(CCl)CCl [1,3-dichloro-2-propanol] + CC(=O)OC(C)(C)C
mass density [kg/m3], [1]
Details	293.15 K	298.15 K	303.15 K	308.15 K	313.15 K
x1 = 0.0496	885.18	879.67	874.08	868.47	862.83
x1 = 0.0948	902.23	896.7	891.14	885.54	879.9
x1 = 0.2007	943.76	938.26	932.7	927.12	921.51
x1 = 0.3003	985.2	979.7	974.18	968.6	963
x1 = 0.4001	1029.14	1023.63	1018.09	1012.51	1006.91
x1 = 0.4991	1075.36	1069.84	1064.27	1058.68	1053.06
x1 = 0.6003	1125.61	1120.05	1114.46	1108.83	1103.17
x1 = 0.7009	1179.16	1173.55	1167.9	1162.21	1156.49
x1 = 0.8013	1236.36	1230.68	1224.95	1219.17	1213.37
x1 = 0.9032	1298.89	1293.07	1287.22	1281.34	1275.42
x1 = 0.9507	1329.66	1323.78	1317.85	1311.9	1305.91
x1 = 1	1362.66	1356.74	1350.72	1344.71	1338.65

Reference: the NIST ThermoML archive (doi:10.1016/j.tca.2016.04.001)
